Assay results published in publication PMC5093939, “Teicoplanin-based antimicrobial therapy in Staphylococcus aureus bone and joint infection: tolerance, efficacy and experience with subcutaneous administration” (BMC Infectious Diseases, 2016).
Like-named read-outs stand apart in the source and are kept apart here. Marks after values point to notes of the source that are not given here.

How the values were obtained:
[1] = in vivo
Excerpt: Patients diagnosed with staphylococcal BJI were identified by cross-referencing the prospective maintained databases of the regional referral center for BJI and the bacteriology laboratory, which list exhaustively all strains isolated from osteoarticular samples since 2001. Patients with diabetic foot- and decubitus ulcer-related BJI were excluded, as they require a specific management. If patients presented more than one osteoarticular infected site, they were considered as independent events for cohort description and outcome analysis, but pooled for tolerance and pharmacologic evaluation. For each patient, data were collected from medical records, nursing charts and biological software in an anonymous standardized case report form.
A Cmin >15 mg/L was taken as an acceptable therapeutic target. Patients with a Cmin >25 mg/L were considered as overexposure.
For intravenous (IV) administration, each dose was diluted in 100 mL of isotonic saline solution and administrated over a 30-min period. For subcutaneous (SC) injections, each dose was diluted in 50 mL of isotonic saline solution and delivered by a nurse during a 30- to 60-min gravity infusion using a butterfly disposable needle.
Descriptive statistics were used to estimate the frequencies of the study variables, described as percentages (%) for dichotomous variables, and medians (interquartile range (IQR)) for continuous variables. For the percentage calculation of each variable, the number of missing values was excluded from the denominator. Non-parametric statistical methods were used to compare the study groups (Chi-squared test, Fisher exact test and Mann–Whitney U test), as appropriate. […] Clinically pertinent variables with a p-value <0.15 in the univariate analysis were included in the final multivariate models. A value of p <0.05 was considered as significant. All analyses were performed using SPSS software version 19.0 (SPSS, Chicago, IL).

[2] = Teicoplanin-related adverse events (CTCAE) and their determinants; design: species or system human; details: in vivo
Excerpt: Teicoplanin-related adverse events (AE) occurring during follow-up were notified and classified according to the Common Terminology Criteria for Adverse Events (CTCAE, National Cancer Institute, 2003). Teicoplanin accountability in the AE occurrence was left to the clinician appreciation, with the help of a pharmacovigilance specialist in doubtful cases.

[3] = test system: Staphylococcus aureus bone and joint infection; test: Outcome (treatment failure) of teicoplanin-treated S. aureus bone and joint infection and its determinants; type: in vivo, human
Excerpt: BJI diagnosis was based upon the existence of clinical and biological evidences of infection, and at least one reliable bacteriological sample positive for S. aureus (i.e., percutaneous joint fluid aspiration, surgical sample, and/or blood culture). BJI were classified according to: i) the existence of orthopedic implant (i.e. joint prosthesis, peripheral or vertebral osteosynthesis); and ii) progression of infection, differentiating acute (≤3 weeks) versus chronic (>3 weeks) infection, calculated from the presumed date of inoculation (i.e., date of device implantation for postoperative orthopaedic device-related infection (ODI), or date of symptom onset for native BJI) up to diagnosis.
Treatment failure was defined as persisting infection under appropriate antimicrobial therapy, relapse after the interruption of antimicrobial therapy, necessity of surgical revision on the account of persisting septic focus ≥5 days after the first intervention, superinfections, and/or fatal outcome if BJI-related.

S. aureus isolates = test: Susceptibility of staphylococcal isolates to teicoplanin; type: cell-based, Staphylococcus aureus; details: all S. aureus isolates of the 65 episodes (MRSA 16.9 %); exact MIC not available; breakpoints ref 23
[4] = ref 12 (LeFrock et al), cited from earlier work
Excerpt: These current difficulties in the field of BJI explain the limited and controversial data available on the efficacy of teicoplanin in staphylococcal BJI. In past studies, treatment success rate ranged from 53 to 91 % [11–14]. The low success rate observed in our study (60 %) may be explained by several factors. First, there is a significant selection bias as patients were recruited in a reference center dedicated to manage complex BJI with a high-risk of failure. In addition, most of past studies included native BJI with a relatively short follow-up (<1 year). Finally, pharmacodynamics par ...

[5] = cited from earlier work
Excerpt: However, the incidence of AE was probably been underestimated due to the retrospective nature of our study (memory bias for non-severe AE). Indeed, in the prospective study of LeFrock et al, the rate of AE was 35 %, requiring discontinuation of treatment in 17 % of the cases. […] The retrospective design may result in underestimating non-serious AE such as injection site reactions.

teicoplanin
Patients obtaining Cmin >15 mg/L within the first 2 weeks of treatment [1]: 66.1% | Subcutaneous versus intravenous route: pharmacokinetics and tolerance [1]: no difference | Delay for Cmin >15 mg/L ([1]; iv): 9 (6–13) days | Initial Cmin <15 mg/L ([1]; iv): 29 (74.4 %) | Initial Cmin >25 mg/L ([1]; iv): 0 (0 %) | Overdose (day 1 to 14), Cmin >25 mg/L ([1]; iv): 8 (16.0 %) | Delay for Cmin >15 mg/L ([1]; sc): 7 (4.5–9.5) days | Initial Cmin <15 mg/L ([1]; sc): 7 (70.0 %) | Initial Cmin >25 mg/L ([1]; sc): 0 (0 %) | Overdose (day 1 to 14), Cmin >25 mg/L ([1]; sc): 2 (14.3 %) | Number of cutaneous rashes [2]: 5 | Number of episodes of headache [2]: 1 | Number of pancytopenia [2]: one | OR (95%CI) of teicoplanin-related adverse event: administration route switch [2]: 0.221 (0.023-2.124) | OR (95%CI) of teicoplanin-related adverse event: delay for Cmin >15 mg/L (days) [2]: 1.019 (0.769-1.351) | OR (95%CI) of teicoplanin-related adverse event: initial Cmin (day 3 to 5, mg/L) [2]: 0.818 (0.656-1.020) | OR (95%CI) of teicoplanin-related adverse event: initial Cmin <15 mg/L [2]: 2.037 (0.213-19.494) | OR (95%CI) of teicoplanin-related adverse event: loading dose (mg/kg/12h) [2]: 1.850 (0.001-4228.586)^b | OR (95%CI) of teicoplanin-related adverse event: loading dose given [2]: 0.889 (0.091-8.646) | OR (95%CI) of teicoplanin-related adverse event: maintenance dose (mg/kg/24h) [2]: 5.150 (0.004-6359.356)^b | OR (95%CI) of teicoplanin-related adverse event: number of loading injections [2]: 0.870 (0.559-1.354) | Resolution of AE [2]: Yes | OR (95%CI) of teicoplanin-related adverse event: IV route ([2]; iv): 0.571 (0.093-3.508) | Teicoplanin-related AE ([2]; iv): 4 (8.7 %) | Teicoplanin-related AE ([2]; sc): 2 (14.3 %) | Influence of administration route on outcome ([3]; IV versus SC, treatment failure analysis): did not influence the outcome | Limb amputations ([3]; among iterative surgical procedures, 65 episodes): two | Susceptibility of staphylococcal isolates (S. aureus isolates): susceptible | Cmin ([4]; average after 6 days, 6 mg/kg/day after 5 loading doses of 6 mg/kg/12 h): 10000 ng/mL | Cmin ([4]; average from the third day, 12 mg/kg/day after 5 loading doses of 12 mg/kg/12 h): 20000 ng/mL | Risk of toxicity with dose increase ([5]; dose increase from 400 to 600 mg/day): not associated with an increased risk of toxicity | Severe local reaction (grade ≥3) ([5]; prospective evaluation of SC teicoplanin in 30 patients, ref 29 (El Samad et al)): no severe local reaction
